This passage reports Activity and ED90 results from ChEMBL document CHEMBL3044865, “Herbicidal Activity and Characteristics of Pyraflufen-ethyl for Controlling Broad-leaved Weeds in Cereals” (J Pestic Sci, 2002).

Calls of active or inactive are those of the source. No cut-off for these calls is given here. A value given as a limit tells only on which side of the number the result lay.

Assay [1] deals with T1, Protoporphyrinogen oxidase 2 (Spinacia oleracea) (UniProt Q94IG7).
T1 sequence (whole entry): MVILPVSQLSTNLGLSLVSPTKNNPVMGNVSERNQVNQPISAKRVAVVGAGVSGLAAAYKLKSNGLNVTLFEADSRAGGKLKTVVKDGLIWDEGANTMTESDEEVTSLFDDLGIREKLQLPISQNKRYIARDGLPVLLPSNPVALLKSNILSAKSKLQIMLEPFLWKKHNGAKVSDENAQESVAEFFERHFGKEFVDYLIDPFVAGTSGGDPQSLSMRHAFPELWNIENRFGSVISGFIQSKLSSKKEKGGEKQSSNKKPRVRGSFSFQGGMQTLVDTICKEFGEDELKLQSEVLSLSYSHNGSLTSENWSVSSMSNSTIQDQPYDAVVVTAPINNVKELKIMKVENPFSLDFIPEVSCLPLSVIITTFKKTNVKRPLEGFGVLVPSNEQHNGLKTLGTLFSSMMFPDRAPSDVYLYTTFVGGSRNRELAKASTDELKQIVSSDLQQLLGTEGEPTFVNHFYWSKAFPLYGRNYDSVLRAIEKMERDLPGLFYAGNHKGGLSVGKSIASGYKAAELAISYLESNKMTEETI
Nature of the assay: Inhibition of Stellaria media protoporphyinogen oxidase assessed as herbicidal activity at 10 g/ha measured after 21 days after treatment under greenhouse by time-course analysis. Details: scale not given: the % may be the effect or the level left.

In assay [2] the target is T2, Protoporphyrinogen oxidase, chloroplastic (Nicotiana tabacum) (UniProt O24163).
T2 sequence (whole entry): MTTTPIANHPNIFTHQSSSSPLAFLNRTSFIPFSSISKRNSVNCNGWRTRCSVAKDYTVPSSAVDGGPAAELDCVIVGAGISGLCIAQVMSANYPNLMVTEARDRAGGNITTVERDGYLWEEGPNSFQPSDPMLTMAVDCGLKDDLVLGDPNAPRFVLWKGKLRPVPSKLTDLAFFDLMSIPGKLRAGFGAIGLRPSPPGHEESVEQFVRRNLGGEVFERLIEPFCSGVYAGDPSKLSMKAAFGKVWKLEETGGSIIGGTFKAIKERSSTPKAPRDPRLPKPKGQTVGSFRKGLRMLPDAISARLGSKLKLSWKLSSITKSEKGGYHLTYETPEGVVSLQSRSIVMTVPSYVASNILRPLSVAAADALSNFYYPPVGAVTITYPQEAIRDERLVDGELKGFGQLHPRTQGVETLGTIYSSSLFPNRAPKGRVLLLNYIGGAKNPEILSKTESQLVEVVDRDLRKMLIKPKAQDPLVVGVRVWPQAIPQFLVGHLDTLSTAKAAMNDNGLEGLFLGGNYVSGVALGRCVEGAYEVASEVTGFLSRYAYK
Nature of the assay: Inhibition of Galium aparine protoporphyrinogen oxidase by post-emergence herbicidal activity assay.

The target of assay [3] is T2, Protoporphyrinogen oxidase, chloroplastic (Nicotiana tabacum). Nature of the assay: Inhibition of Veronica hederaefolia protoporphyrinogen oxidase by post-emergence herbicidal activity assay. Particulars: Veronica hederifolia.
For assay [4], the target named is T1, Protoporphyrinogen oxidase 2 (Spinacia oleracea). Description: Inhibition of Stellaria media protoporphyrinogen oxidase by post-emergence herbicidal activity assay.
Assay [5] concerns the target T3, Protoporphyrinogen oxidase (Medicago truncatula) (UniProt G7L3C0).
T3 sequence (whole entry): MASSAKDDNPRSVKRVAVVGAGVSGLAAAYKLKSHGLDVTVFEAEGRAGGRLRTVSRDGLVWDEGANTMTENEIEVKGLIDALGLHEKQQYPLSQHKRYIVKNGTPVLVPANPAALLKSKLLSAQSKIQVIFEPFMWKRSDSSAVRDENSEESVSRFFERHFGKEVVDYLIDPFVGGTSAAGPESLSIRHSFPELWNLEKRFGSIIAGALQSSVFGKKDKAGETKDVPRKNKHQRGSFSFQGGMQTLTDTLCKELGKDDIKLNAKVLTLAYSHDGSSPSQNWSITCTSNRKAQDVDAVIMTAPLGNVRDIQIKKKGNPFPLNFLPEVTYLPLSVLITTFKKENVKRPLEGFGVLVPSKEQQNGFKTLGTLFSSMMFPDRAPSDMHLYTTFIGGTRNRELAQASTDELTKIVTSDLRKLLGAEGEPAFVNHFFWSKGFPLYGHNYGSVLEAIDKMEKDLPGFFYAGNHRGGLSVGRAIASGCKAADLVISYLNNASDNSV
Nature of the assay: Inhibition of Viola arvensis protoporphyrinogen oxidase by post-emergence herbicidal activity assay.

Assay [6] concerns the target T4, Protoporphyrinogen IX oxidase (Cichorium intybus) (UniProt Q9SPL6).
T4 sequence (whole entry): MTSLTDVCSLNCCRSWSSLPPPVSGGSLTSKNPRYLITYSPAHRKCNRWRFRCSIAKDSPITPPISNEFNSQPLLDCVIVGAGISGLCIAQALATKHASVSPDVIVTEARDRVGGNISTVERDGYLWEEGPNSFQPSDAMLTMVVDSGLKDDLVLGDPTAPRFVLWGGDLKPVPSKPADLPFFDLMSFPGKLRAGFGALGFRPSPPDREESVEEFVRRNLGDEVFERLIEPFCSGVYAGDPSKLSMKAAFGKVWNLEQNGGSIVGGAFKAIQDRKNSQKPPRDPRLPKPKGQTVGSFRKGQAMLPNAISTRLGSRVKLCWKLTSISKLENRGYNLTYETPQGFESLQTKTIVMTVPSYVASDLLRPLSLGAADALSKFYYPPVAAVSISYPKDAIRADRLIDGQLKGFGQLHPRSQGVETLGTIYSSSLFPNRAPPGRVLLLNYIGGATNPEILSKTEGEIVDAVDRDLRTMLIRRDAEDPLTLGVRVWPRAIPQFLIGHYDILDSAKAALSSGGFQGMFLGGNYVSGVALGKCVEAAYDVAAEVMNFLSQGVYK
Nature of the assay: Inhibition of Tripleurospermum maritimum subsp. inodorum protoporphyrinogen oxidase by post-emergence herbicidal activity assay.

Assay [7] addresses T1, Protoporphyrinogen oxidase 2 (Spinacia oleracea). Nature of the assay: Inhibition of Stellaria media protoporphyinogen oxidase assessed as herbicidal activity at 100 g/ha measured after 21 days after treatment under greenhouse by time-course analysis. Details: scale not given: the % may be the effect or the level left.
The test system of assay [8] is Tripleurospermum inodorum. Nature of the assay: Herbicidal activity against Tripleurospermum maritimum subsp. inodorum assessed as killing measured after 21 days after treatment by post-emergence herbicidal activity assay. It is filed as functional.
Assay [9] has as its target T1, Protoporphyrinogen oxidase 2 (Spinacia oleracea). Nature of the assay: Inhibition of Stellaria media protoporphyinogen oxidase assessed as herbicidal activity at 50 g/ha measured after 9 days after treatment under greenhouse by time-course analysis. Details: scale not given: the % may be the effect or the level left.
In assay [10] the test system is Galium aparine. Description: Herbicidal activity against Galium aparine assessed as killing measured after 21 days after treatment by post-emergence herbicidal activity assay. It is filed as functional.
For assay [11], the system named is Veronica hederifolia. Nature of the assay: Herbicidal activity against Veronica hederaefolia assessed as killing measured after 21 days after treatment by post-emergence herbicidal activity assay. It is filed as functional.
In assay [12] the test system is Stellaria media. Nature of the assay: Herbicidal activity against Stellaria media assessed as killing measured after 21 days after treatment by post-emergence herbicidal activity assay. The assay is classed as functional.
Assay [13] deals with Viola arvensis. Nature of the assay: Herbicidal activity against Viola arvensis assessed as killing measured after 21 days after treatment by post-emergence herbicidal activity assay. The assay is classed as functional.
Assay [14] has as its target T1, Protoporphyrinogen oxidase 2 (Spinacia oleracea). Nature of the assay: Inhibition of Stellaria media protoporphyinogen oxidase assessed as herbicidal activity at 100 g/ha measured after 1 days after treatment under greenhouse by time-course analysis.
For assay [15] the target is unchanged. Description: Inhibition of Stellaria media protoporphyinogen oxidase assessed as herbicidal activity at 0.3 g/ha measured after 14 days after treatment under greenhouse by time-course analysis. Details: scale not given: the % may be the effect or the level left.

In the case of `CCOC(=O)C(Cl)Cc1cc(-n2nc(C)n(C(F)F)c2=O)c(F)cc1Cl` (stereo not given), the Activity in [1] is over 90%. The ED90 in [2] was found to be 1.5 gAi/ha; in [3] it was 1 gAi/ha; in [4], 10 gAi/ha; in assay [5] it was 5 gAi/ha; in assay [6], 1.5 gAi/ha.
In the case of `COC(=O)c1cc(Oc2ccc(Cl)cc2Cl)ccc1[N+](=O)[O-]`, the ED90 in assay [2] worked out at 50 gAi/ha; in assay [3], 30 gAi/ha; in assay [4], 100 gAi/ha; in assay [5], 20 gAi/ha; in [6], 15 gAi/ha. Besides, the Activity in [7] is under 90%.
For `N#Cc1cc(I)c(O)c(I)c1` [IOXYNIL], the ED90 was 30 gAi/ha in assay [8]; 100 gAi/ha in assay [10]; 50 gAi/ha in assay [11]; 50 gAi/ha in assay [12]; 50 gAi/ha in assay [13]. Also, the Activity in [9] is 90%.
In the case of `Cc1cc(Cl)ccc1O[C@@H](C)C(=O)O` [MECOPROP-P], the ED90 in assay [8] was 1000 gAi/ha; in assay [10], 300 gAi/ha; in [11], 300 gAi/ha; in assay [12], 100 gAi/ha; in assay [13], 1000 gAi/ha. Besides, the result in [14] was Active.
Turning to `COC(=O)c1ccccc1S(=O)(=O)NC(=O)Nc1nc(C)nc(OC)n1` [METSULFURON-METHYL], the ED90 in assay [8] is recorded as 0.3 gAi/ha; in assay [10], over 100 gAi/ha; in [11], 50 gAi/ha; in assay [12], 0.3 gAi/ha; in assay [13], 5 gAi/ha. Further, in assay [15], the Activity was 90%.
